In patent US11638744B2, “Immunity enhancing agent for cancer by Allergin-1 antagonist” (ONO PHARMACEUTICAL CO., LTD., priority 2015, dated 2023):

Assays:
[1] = tested on: intraperitoneal macrophages (CD11b+F4/80+ cells); assay: Production of IFNβ after cGAMP stimulation of intraperitoneal macrophages; assay type: cell-based, mouse; details: macrophages derived from Alg1-KO mice versus WT; 3, 10 or 30 μM; 24 and 48 hours
Experimental: To C57BL/6N mice and Alg1-KO mice, a 3% thioglycolate medium was intraperitoneally administered at 1 mL/body. After 3 days, 5 mL of 5 mM EDTA/PBS was injected for intraperitoneal lavage and the drain was collected. After haemolysis treatment, the proportion of CD11b^+F4/80^+ cells among intraperitoneal invasive cells was calculated on a flow cytometer.
The cells were seeded in a 96-well plate so that the CD11b^+F4/80^+ cells are 2×10^5 cells/well, the culture supernatant was discarded after 1 hour, the cells were washed once with the medium and the medium containing 3, 10 or 30 μM cyclic GMP-AMP (cGAMP), respectively was added. The culture supernatant was collected after 24 and 48 hours and the amount of IFN-β in the culture supernatants was measured.

TLR7 = assay: Production of type I IFN after administration of polyuridine (serum ELISA); assay type: in vivo; details: Alg1-KO mice versus WT; 50 μg/mouse i.v. with DOTAP; 2 and 6 hours after administration
Experimental: To C57BL/6 mice (WT mice) and Alg1-KO mice, polyuridine was intravenously administered together with a liposome transfection reagent, DOTAP. The dosage was 50 μg/mouse. Serum IFNα and IFNβ were measured by ELISA at 2 and 6 hours after administration.

Substance | production of IFNβ (culture supernatant) [1] | production of IFNα (serum) (TLR7) | production of IFNβ (serum) (TLR7)
cyclic GMP-AMP [cGAMP] | increased compared to WT |  | 
polyuridine |  | increased compared to WT | increased compared to WT
